Measured values from ChEMBL document CHEMBL4396930, “Identification of new dual FABP4/5 inhibitors based on a naphthalene-1-sulfonamide FABP4 inhibitor” (Bioorg Med Chem, 2019).

Legend:
RAW264.7 [1] = assay: Cytotoxicity against mouse RAW264.7 cells assessed as reduction in cell viability at 30 to 60 uM incubated for 24 hrs by MTT assay; format: cell-based; conditions: raw264.7, 24 h
3T3-L1 = assay: Cytotoxicity against mouse 3T3L1 cells assessed as reduction in cell viability at 30 to 60 uM incubated for 24 hrs by MTT assay; format: cell-based; conditions: 3t3-l1, 24 h
[2] = biological target: Fatty acid-binding protein, adipocyte (Homo sapiens, UniProt P15090); assay: Displacement of 1,8-ANS from human recombinant full length N-terminal his-tagged FABP4 expressed in Escherichia coli BL21 (DE3) incubated for 3 mins by fluorescence based assay
[3] = biological target: Fatty acid-binding protein 5 (Homo sapiens, UniProt Q01469); assay: Displacement of 1,8-ANS from human recombinant full length N-terminal his-tagged FABP5 expressed in Escherichia coli BL21 (DE3) incubated for 3 mins by fluorescence based assay
RAW264.7 [4] = assay: Antiinflammatory activity against mouse RAW264.7 cells assessed as inhibition of LPS-induced TNFalpha gene expression level at 30 uM preincubated for 12 hrs followed by LPS addition and measured after 6 hrs by qRT PCR analysis relative to control; format: functional
RAW264.7 [5] = assay: Antiinflammatory activity against mouse RAW264.7 cells assessed as inhibition of LPS-induced MCP-1 gene expression level at 30 uM preincubated for 12 hrs followed by LPS addition and measured after 6 hrs by qRT PCR analysis relative to control; format: functional
[6] = biological target: Fatty acid-binding protein, heart (Homo sapiens, UniProt P05413); assay: Displacement of 1,8-ANS from FABP3 (unknown origin) incubated for 3 mins by fluorescence based assay
Chain of Fatty acid-binding protein, heart (P05413 whole entry): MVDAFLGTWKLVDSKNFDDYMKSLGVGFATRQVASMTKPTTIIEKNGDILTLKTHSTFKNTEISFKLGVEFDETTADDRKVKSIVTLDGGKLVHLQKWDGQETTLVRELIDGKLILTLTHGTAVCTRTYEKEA

Chain of Fatty acid-binding protein, adipocyte (P15090 whole entry): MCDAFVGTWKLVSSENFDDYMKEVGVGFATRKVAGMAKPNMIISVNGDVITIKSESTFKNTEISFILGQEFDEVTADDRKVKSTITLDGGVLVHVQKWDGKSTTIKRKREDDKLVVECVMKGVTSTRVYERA
Chain of Fatty acid-binding protein 5 (Q01469 whole entry): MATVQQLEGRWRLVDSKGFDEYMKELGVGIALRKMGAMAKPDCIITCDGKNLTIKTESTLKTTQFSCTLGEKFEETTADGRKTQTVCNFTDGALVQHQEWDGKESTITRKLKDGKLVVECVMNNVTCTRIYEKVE

SMILES | IC50 [2] [µM] | IC50 [3] [µM] | further results
Cc1c(Cl)cccc1OCc1cc(=O)n2nc(-c3ccccc3)nc2[nH]1 |  |  | Activity (RAW264.7 [1]): Toxic; Activity (3T3-L1): Toxic
COc1c(-c2cccc(O)c2)cc(S(=O)(=O)Nc2ccc(F)c(C(=O)O)c2)c2ccccc12 | 1.89 |  | 
COc1c(-c2ccoc2)cc(S(=O)(=O)Nc2ccc(F)c(C(=O)O)c2)c2ccccc12 | 3.53 |  | 
CCCCCOc1ccc(S(=O)(=O)Nc2ccc(F)c(C(=O)O)c2)c2ccccc12 | 2.99 | 8.32 | 
COc1c(-c2cccc(N)c2)cc(S(=O)(=O)Nc2ccc(F)c(C(=O)O)c2)c2ccccc12 | 1.7 |  | 
CCOc1ccc(S(=O)(=O)Nc2ccc(F)c(C(=O)O)c2)c2ccccc12 | 2.64 |  | 
O=C(O)c1cc(NS(=O)(=O)c2ccc(OCC34CC5CC(CC(C5)C3)C4)c3ccccc23)ccc1F | 14.8 | 4.61 | 
CCCCCCOc1ccc(S(=O)(=O)Nc2ccc(F)c(C(=O)O)c2)c2ccccc12 | 2.43 | 4.17 | 
O=C(O)c1cc(NS(=O)(=O)c2ccc(OC3CCCCCC3)c3ccccc23)ccc1F | 2.37 | 3.3 | 
COc1c(-c2ccc(F)c(Cl)c2)cc(S(=O)(=O)Nc2ccc(F)c(C(=O)O)c2)c2ccccc12 | 1.58 |  | Activity (RAW264.7 [1]): Non-Toxic; inhibition at 30 µM (RAW264.7 [4]): 23%; inhibition at 30 µM (RAW264.7 [5]): 32%; IC50 [6]: 46.8 µM; Activity (3T3-L1): Non-Toxic
O=C(O)c1cc(NS(=O)(=O)c2ccc(OCCCC3CCCCC3)c3ccccc23)ccc1F | 3.59 | 3.63 | 
CCCCCCCCCCOc1ccc(S(=O)(=O)Nc2ccc(F)c(C(=O)O)c2)c2ccccc12 | 4.73 | 4.48 | 
CCCCCCCCOc1ccc(S(=O)(=O)Nc2ccc(F)c(C(=O)O)c2)c2ccccc12 | 4.04 | 4.19 | 
O=C(O)c1cc(NS(=O)(=O)c2ccc(OC3CCCCC3)c3ccccc23)ccc1F | 2.2 | 7.66 | 
COc1c(-c2ccc(O)cc2)cc(S(=O)(=O)Nc2ccc(F)c(C(=O)O)c2)c2ccccc12 | 1.19 |  | 
CCCCCCCCCCCCOc1ccc(S(=O)(=O)Nc2ccc(F)c(C(=O)O)c2)c2ccccc12 | 24.8 |  | 
O=C(O)c1cc(NS(=O)(=O)c2ccc(OCc3ccccc3)c3ccccc23)ccc1F | 3.15 |  | 
COc1c(-c2ccncc2)cc(S(=O)(=O)Nc2ccc(F)c(C(=O)O)c2)c2ccccc12 | 3.54 |  | 
COc1ccc(S(=O)(=O)Nc2ccc(F)c(C(=O)O)c2)c2ccccc12 |  |  | Activity (RAW264.7 [1]): Non-Toxic; Activity (3T3-L1): Non-Toxic
O=C(O)c1cc(NS(=O)(=O)c2ccc(OCCC3CCCCC3)c3ccccc23)ccc1F | 1.97 | 4.85 | Activity (RAW264.7 [1]): Non-Toxic; inhibition at 30 µM (RAW264.7 [4]): 24%; inhibition at 30 µM (RAW264.7 [5]): 29%; IC50 [6]: 55.6 µM; Activity (3T3-L1): Non-Toxic
O=C(O)c1cc(NS(=O)(=O)c2ccc(OCC3CCCCC3)c3ccccc23)ccc1F | 2.41 | 8.12 | 
COc1c(-c2ccc(F)c(F)c2)cc(S(=O)(=O)Nc2ccc(F)c(C(=O)O)c2)c2ccccc12 | 2.98 |  | 
COc1c(-c2ccc(Cl)c(Cl)c2)cc(S(=O)(=O)Nc2ccc(F)c(C(=O)O)c2)c2ccccc12 | 4.38 |  | 
COc1c(-c2ccc(F)cc2)cc(S(=O)(=O)Nc2ccc(F)c(C(=O)O)c2)c2ccccc12 | 1.74 | 10 | 
CCCCCCCOc1ccc(S(=O)(=O)Nc2ccc(F)c(C(=O)O)c2)c2ccccc12 | 2.3 | 2.76 | 
COc1c(-c2ccccc2)cc(S(=O)(=O)Nc2ccc(F)c(C(=O)O)c2)c2ccccc12 | 1.19 |  | 
